According to patent publication US10294234B2, “HIV inhibitor compounds” (priority 2017, dated 2019):
Where two headings read alike, the source gives them in different places.

Test system: HIV-1 (IIIB) in MT-4 cells
Assay: MT-4 HIV assay
Format: cell-based
Conditions: Human immunodeficiency virus 1, MT4, 120 h
How it was run: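 Antiviral activity was read by Cell Titer Glo after a 5-day, 37 °C culture of MT-4 cells pre-infected with a 1:250 dilution of HIV-1 (IIIB). Compounds were tested as threefold dilution series in complete RPMI. Controls were no drug, mock infection and 5 uM AZT.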

[1] = HIV-1 (IIIB), MT-4 cells, 5 days, Cell Titer Glo, read-out: EC50

Compound	EC50 [1] [nM]	EC50 [nM]
COC(=O)N[C@H](C(=O)N[C@@H](Cc1ccc(C#Cc2ccc(N3CC4CCC(C3)N4C3COC3)nc2)cc1)[C@@H](O)CN(Cc1c(F)cc(-c2ccn(C(F)F)n2)cc1F)NC(=O)[C@@H](NC(=O)OC1CC1)C(C)(C)C)C(C)(C)C(F)(F)F [Example 187, cyclopropyl ((5S,8S,9S,14S)-11-(4-(1-(difluoromethyl)-1H-pyrazol-3-yl)-2,6-difluorobenzyl)-9-hydroxy-15,15-dimethyl-8-(4-((6-(8-(oxetan-3-yl)-3,8-diazabicyclo[3.2.1]octan-3-yl)pyridin-3-yl)ethynyl)benzyl)-3,6,13-trioxo-5-(1,1,1-trifluoro-2-methylpropan-2-yl)-2-oxa-4,7,11,12-tetraazahexadecan-14-yl)carbamate]	4.7	–
CCN1C2CCC1CN(c1ccc(C#Cc3ccc(C[C@H](NC(=O)[C@@H](NC(=O)OC)C(C)(C)C(F)(F)F)[C@@H](O)CN(Cc4c(F)cc(-c5ccccn5)cc4F)NC(=O)[C@@H](NC(=O)OC)C(C)(C)C(F)(F)F)cc3)cn1)C2 [Example 241, methyl ((5S,8S,9S,14S)-11-(2,6-difluoro-4-(pyridin-2-yl)benzyl)-8-(4-((6-(8-ethyl-3,8-diazabicyclo[3.2.1]octan-3-yl)pyridin-3-yl)ethynyl)benzyl)-16,16,16-trifluoro-9-hydroxy-15,15-dimethyl-3,6,13-trioxo-5-(1,1,1-trifluoro-2-methylpropan-2-yl)-2-oxa-4,7,11,12-tetraazahexadecan-14-yl)carbamate]	6.57	–
COC(=O)N[C@H](C(=O)N[C@@H](Cc1ccc(C#Cc2ccc(N3CC4CCC(C3)N4C(=O)C3(C)COC3)nc2)cc1)[C@@H](O)CN(Cc1c(F)cc(-c2ccn(C)n2)cc1F)NC(=O)[C@@H](NC(=O)OC)C(C)(C)C)C(C)(C)C [Example 4]	2.82	–
COC(=O)N[C@H](C(=O)N[C@@H](Cc1ccc(C#Cc2ccc(N3CC4CCC(C3)N4C3COC3)nc2C)cc1)[C@@H](O)CN(Cc1c(F)cc(-c2cnn(C(F)F)c2)cc1F)NC(=O)[C@@H](NC(=O)OC)C(C)(C)C(F)(F)F)C(C)(C)C(F)(F)F [Example 155, Methyl ((5S,8S,9S,14S)-11-(4-(1-(difluoromethyl)-1H-pyrazol-4-yl)-2,6-difluorobenzyl)-16,16,16-trifluoro-9-hydroxy-15,15-dimethyl-8-(4-((2-methyl-6-(8-(oxetan-3-yl)-3,8-diazabicyclo[3.2.1]octan-3-yl)pyridin-3-yl)ethynyl)benzyl)-3,6,13-trioxo-5-(1,1,1-trifluoro-2-methylpropan-2-yl)-2-oxa-4,7,11,12-tetraazahexadecan-14-yl)carbamate]	8.95	–
COC(=O)N[C@H](C(=O)N[C@@H](Cc1ccc(C#Cc2ccc(N3C[C@H]4C[C@@H]3CN4C3COC3)nc2)cc1)[C@@H](O)CN(Cc1ccc(-c2ccn(C3CC3)n2)cc1)NC(=O)[C@@H](NC(=O)OC)C(C)(C)C(F)(F)F)C(C)(C)C(F)(F)F [Example 28, Methyl ((5S,8S,9S,14S)-11-(4-(1-cyclopropyl-1H-pyrazol-3-yl)benzyl)-16,16,16-trifluoro-9-hydroxy-15,15-dimethyl-8-(4-((6-((1R,4R)-5-(oxetan-3-yl)-2,5-diazabicyclo[2.2.1]heptan-2-yl)pyridin-3-yl)ethynyl)benzyl)-3,6,13-trioxo-5-(1,1,1-trifluoro-2-methylpropan-2-yl)-2-oxa-4,7,11,12-tetraazahexadecan-14-yl)carbamate]	4.56	–
COC(=O)N[C@H](C(=O)N[C@@H](Cc1ccc(C#Cc2cnc(N3CC4CCC(C3)N4C3COC3)nc2)cc1)[C@@H](O)CN(Cc1c(F)cc(-c2ccn(C(F)F)n2)cc1F)NC(=O)[C@@H](NC(=O)OC)C12CC(C(F)(F)F)(C1)C2)C12CC(C(F)(F)F)(C1)C2 [Example 160, Methyl ((5S,8S,9S,14S)-11-(4-(1-(difluoromethyl)-1H-pyrazol-3-yl)-2,6-difluorobenzyl)-9-hydroxy-8-(4-((2-(8-(oxetan-3-yl)-3,8-diazabicyclo[3.2.1]octan-3-yl)pyrimidin-5-yl)ethynyl)benzyl)-3,6,13-trioxo-5,14-bis(3-(trifluoromethyl)bicyclo[1.1.1]pentan-1-yl)-2-oxa-4,7,11,12-tetraazatetradecan-14-yl)carbamate]	5700	–
COC(=O)N[C@H](C(=O)NN(Cc1c(F)cc(-c2nnc(C3CC3)s2)cc1F)C[C@H](O)[C@H](Cc1ccc(C#Cc2ccc(N3CC4CCC(C3)N4C3COC3)nc2)cc1)NC(=O)[C@@H](NC(=O)OC)C(C)(C)C(F)(F)F)C(C)(C)C [Example 76, Methyl ((5S,8S,9S,14S)-11-(4-(5-cyclopropyl-1,3,4-thiadiazol-2-yl)-2,6-difluorobenzyl)-9-hydroxy-15,15-dimethyl-8-(4-((6-(8-(oxetan-3-yl)-3,8-diazabicyclo[3.2.1]octan-3-yl)pyridin-3-yl)ethynyl)benzyl)-3,6,13-trioxo-5-(1,1,1-trifluoro-2-methylpropan-2-yl)-2-oxa-4,7,11,12-tetraazahexadecan-14-yl)carbamate]	3.53	–
COC(=O)N[C@H](C(=O)N[C@@H](Cc1ccc(C#Cc2ccc(N3C[C@@H](C)O[C@@H](C)C3)nc2)cc1)[C@@H](O)CN(Cc1c(F)cc(-c2cnn(C(F)F)c2)cc1F)NC(=O)[C@@H](NC(=O)OC)C(C)(C)C(F)(F)F)C(C)(C)C(F)(F)F [Example 132, Methyl ((5S,8S,9S,14S)-11-(4-(1-(difluoromethyl)-1H-pyrazol-4-yl)-2,6-difluorobenzyl)-8-(4-((6-((2S,6R)-2,6-dimethylmorpholino)pyridin-3-yl)ethynyl)benzyl)-16,16,16-trifluoro-9-hydroxy-15,15-dimethyl-3,6,13-trioxo-5-(1,1,1-trifluoro-2-methylpropan-2-yl)-2-oxa-4,7,11,12-tetraazahexadecan-14-yl)carbamate]	18.2	–
COC(=O)N[C@H](C(=O)N[C@@H](Cc1ccc(C#Cc2ccc(N3CC4CCC(C3)N4C3COC3)nc2)cc1)[C@@H](O)CN(Cc1ccc(-c2ccccn2)cc1F)NC(=O)[C@@H](NC(=O)OC)C(C)(C)C(F)(F)F)C(C)(C)C(F)(F)F [Example 245, Methyl ((5S,8S,9S,14S)-16,16,16-trifluoro-11-(2-fluoro-4-(pyridin-2-yl)benzyl)-9-hydroxy-15,15-dimethyl-8-(4-((6-(8-(oxetan-3-yl)-3,8-diazabicyclo[3.2.1]octan-3-yl)pyridin-3-yl)ethynyl)benzyl)-3,6,13-trioxo-5-(1,1,1-trifluoro-2-methylpropan-2-yl)-2-oxa-4,7,11,12-tetraazahexadecan-14-yl)carbamate]	3.59	–
COC(=O)N[C@H](C(=O)N[C@H](C(=O)N[C@@H](Cc1ccc(C#Cc2cnc(N3CC4CC(C3)N4C3COC3)nc2)cc1)[C@@H](O)CN(Cc1c(F)cc(-c2ccn(CC(F)F)n2)cc1F)NC(=O)[C@@H](NC(=O)OC)C(C)(C)C)C(C)(C)C)C(C)C [Example 222, Methyl ((5S,8S,11S,12S,17S)-8-(tert-butyl)-14-(4-(1-(2,2-difluoroethyl)-1H-pyrazol-3-yl)-2,6-difluorobenzyl)-12-hydroxy-5-isopropyl-18,18-dimethyl-11-(4-((2-(6-(oxetan-3-yl)-3,6-diazabicyclo[3.1.1]heptan-3-yl)pyrimidin-5-yl)ethynyl)benzyl)-3,6,9,16-tetraoxo-2-oxa-4,7,10,14,15-pentaazanonadecane-17-yl)carbamate]	–	12.9
COC(=O)N[C@H](C(=O)N[C@@H](Cc1ccc(C#Cc2ccc(N3CC4CC(C3)N4C3COC3)nc2)cc1)[C@@H](O)CN(Cc1c(F)cc(-c2ccc(N3CC4CC(C3)N4C3COC3)nc2)cc1F)NC(=O)[C@@H](NC(=O)OC)C(C)(C)C(F)(F)F)C(C)(C)C(F)(F)F [Example 38, Methyl ((5S,8S,9S,14S)-11-(2,6-difluoro-4-(6-(6-(oxetan-3-yl)-3,6-diazabicyclo[3.1.1]heptan-3-yl)pyridin-3-yl)benzyl)-16,16,16-trifluoro-9-hydroxy-15,15-dimethyl-8-(4-((6-(6-(oxetan-3-yl)-3,6-diazabicyclo[3.1.1]heptan-3-yl)pyridin-3-yl)ethynyl)benzyl)-3,6,13-trioxo-5-(1,1,1-trifluoro-2-methylpropan-2-yl)-2-oxa-4,7,11,12-tetraazahexadecan-14-yl)carbamate]	6.13	–
COC(=O)N[C@H](C(=O)N[C@@H](Cc1ccc(C#Cc2ccc3nc(N4CC5CCC(C4)N5C4COC4)ccc3n2)cc1)[C@@H](O)CN(Cc1c(F)cc(-c2ccn(C(F)F)n2)cc1F)NC(=O)[C@@H](NC(=O)OC)C(C)(C)C(F)(F)F)C(C)(C)C(F)(F)F [Example 47, Methyl ((5S,8S,9S,14S)-11-(4-(1-(difluoromethyl)-1H-pyrazol-3-yl)-2,6-difluorobenzyl)-16,16,16-trifluoro-9-hydroxy-15,15-dimethyl-8-(4-((6-(8-(oxetan-3-yl)-3,8-diazabicyclo[3.2.1]octan-3-yl)-1,5-naphthyridin-2-yl)ethynyl)benzyl)-3,6,13-trioxo-5-(1,1,1-trifluoro-2-methylpropan-2-yl)-2-oxa-4,7,11,12-tetraazahexadecan-14-yl)carbamate]	7.18	–
COC(=O)N[C@H](C(=O)N[C@@H](Cc1ccc(C#Cc2cnc(N3CC4CCC(C3)N4C3COC3)cc2C)cc1)[C@@H](O)CN(Cc1c(F)cc(-c2ccn(C(F)F)n2)cc1F)NC(=O)[C@@H](NC(=O)OC)C(C)(C)C(F)(F)F)C(C)(C)C(F)(F)F [Example 151, Methyl ((5S,8S,9S,14S)-11-(4-(1-(difluoromethyl)-1H-pyrazol-3-yl)-2,6-difluorobenzyl)-16,16,16-trifluoro-9-hydroxy-15,15-dimethyl-8-(4-((4-methyl-6-(8-(oxetan-3-yl)-3,8-diazabicyclo[3.2.1]octan-3-yl)pyridin-3-yl)ethynyl)benzyl)-3,6,13-trioxo-5-(1,1,1-trifluoro-2-methylpropan-2-yl)-2-oxa-4,7,11,12-tetraazahexadecan-14-yl)carbamate]	4.82	–
